# Measurements taken from patent US7816521B2, “1,2,4-benzotriazine-1,4-dioxides” (Auckland Uniservices Limited, priority 2004, dated 2010).
# Assays:
# [1] = test system: hypoxic cells in HT29 tumours; assay: HT29 excision assay (drug after 20 Gy radiation, clonogenic survival); assay type: in vivo, human; settings: for HT29 log kill: log10 kill of hypoxic cells in HT29 tumours, additional to radiation alone, MTD or 75% of MTD, Table 2
# Text: In order to test the validity of this PK/PD model as a tool for predicting the antitumour activity of TPZ analogues, the inventors determined the key PK/PD parameters for 13 TPZ analogues, and TPZ itself, for the HT29 human colon carcinoma cell line. These parameters were then used to calculate the expected killing in hypoxic regions of HT29 tumours following a single intraperitoneal dose of the compounds at their maximum tolerated dose. The results of this calculation were then compared with measured killing of hypoxic cells in HT29 tumours, determined by administering the compounds immediately (within 5 min) after gamma irradiation (cobalt 60, 20 Gy) to sterilise oxygenated cells in the tumours. Tumours were removed 18 hours later and the number of surviving cells determined by clonogenic assay. The measured PK/PD parameters, model prediction (using the above 3D microvascular network), and experimentally determined hypoxic cell kill is shown in Table 1, and the relationship between predicted and measured cell kill in FIG. 4. The prediction is statistically highly significant (p=0.001, Fisher exact test). […] If the extravascular transport component was excluded from the model, the R^2 for this regression was only 0.28 and the relationship was not statistically significant.
# Animals were treated with radiation alone (RAD, 20 Gy whole body); RAD+TPZ (316 μmol/kg); compound 3 (562 μmol/kg); RAD+compound 3 (562 μmol/kg). Tumours were excised 18 hr after treatment and clonogenic survival determined by staining colonies 14 days later. Each symbol represents a separate tumour. p<0.01 (one way ANOVA with Dunnett's test) for RAD+compound 3 and for RAD+TPZ versus RAD only. Horizontal lines are the historical means for untreated controls (upper line) and 20 Gy radiation only (lower line).
# Compounds were evaluated with single dose radiation using s.c. HT29 tumors (average of two largest diameters 7-10 mm) grown by inoculating 10^7 cells (obtained by enzymatic dissociation of multicellular spheroids). Drugs were administered as single i.p. doses at their MTD with the following groups in each experiment. A: vehicle control, B: test drug, C: Radiation (20 Gy, cobalt-60, whole body irradiation), D: TPZ (316 μmol/kg) 5 min after radiation, E: Test drug 5 min after radiation. Each group included 3 (A, B) or 5 (C-E) mice. Tumors were excised 18 hr after treatment and plated to determine clonogenicity. Hypoxic cytotoxicity is determined by the difference in surviving fraction between groups C and E, while comparison of A and B evaluates oxic cell killing. Total yield of clonogens was used as the key parameter if cell yields were affected by treatment. Results of this assay are illustrated for compound 3 (and TPZ) in FIG. 5.
# [2] = Solubility in culture medium; assay type: physicochemical; settings: culture medium (αMEM with 5% foetal bovine serum), plasma or biological fluid, thermodynamic from solid; culture medium (αMEM, 5% foetal bovine serum), pH 7.4; no unit in table, threshold is 2 mM
# Method: Solubility is determined in laboratory culture medium (alpha minimal essential medium (αMEM) with 5% foetal bovine serum) saturated with 5% carbon dioxide at pH 7.4, by addition of excess compound and sonication at ambient temperature for 15 minutes. Alternatively the compound is diluted from a concentrated stock solution in DMSO into culture medium to give a final DMSO concentration <1%. The mixture is centrifuged at 13,000 rpm for 6 minutes and the concentration of drug in the supernatant solution is then determined by HPLC using a standard reference solution in a suitable solvent.
SMILES,HT29 log kill [1],solubility [2],activity against hypoxic cells in HT29 tumours ([1]; relative to radiation alone)
"Nc1n[n+]([O-])c2ccccc2[n+]1[O-] [A, tirapazamine, reference compound]",1.17,8.9 mM,–
"Cc1ccc2c(c1)[n+]([O-])c(N)n[n+]2[O-] [B, 6-Methyl-1,2,4-benzotriazin-3-amine 1,4-Dioxide]",2.165,3.02 mM,–
"Nc1n[n+]([O-])c2cc(Cl)ccc2[n+]1[O-] [C, 7-Chloro-1,2,4-benzotriazin-3-amine 1,4-Dioxide]",−0.007,0.09 mM,–
"Nc1n[n+]([O-])c2c(Cl)cccc2[n+]1[O-] [D, 8-Chloro-1,2,4-benzotriazin-3-amine 1,4-Dioxide]",−0.154,2.22 mM,–
"CS(=O)(=O)c1ccc2c(c1)[n+]([O-])nc(N)[n+]2[O-] [E, 7-(Methylsulfonyl)-1,2,4-benzotriazin-3-amine 1,4-Dioxide]",−0.028,0.49 mM,–
"Cc1ccc2c(c1)[n+]([O-])nc(NCCN(C)C)[n+]2[O-] [F, 7-Methyl-N-[2-(dimethylamino)ethyl]-1,2,4-benzotriazin-3-amine 1,4-Dioxide]",0.196,38.7 mM,–
CCCN(CCC)CCNc1n[n+]([O-])c2ccccc2[n+]1[O-] [G],0.248,26 mM,–
"Cc1ccc2c(c1)[n+]([O-])c(NCCN(C)C)n[n+]2[O-] [H, N^1,N^1-Dimethyl-N^2-(6-methyl-1,4-dioxido-1,2,4-benzotriazin-3-yl)-1,2-ethanediamine]",1.001,52 mM,significant activity
CCc1n[n+]([O-])c2ccccc2[n+]1[O-] [I],0.886,14.5 mM,–
COCCc1n[n+]([O-])c2ccccc2[n+]1[O-] [J],0.8,21 mM,–
[O-][n+]1nc(NCCCCCCNc2c3ccccc3nc3ccccc23)[n+]([O-])c2ccccc21 [K],0.009,0.024 mM,–
CN(CCCNC(=O)c1cccc2cc3ccccc3nc12)CCCNc1n[n+]([O-])c2ccccc2[n+]1[O-] [L],−0.051,0.45 mM,–
CN(CCCNC(=O)c1cccc2ccc(-c3ccncc3)nc12)CCCNc1n[n+]([O-])c2ccccc2[n+]1[O-] [M],0.138,3.8 mM,–
Cc1ccc2c(c1)[n+]([O-])c(NCCCN(C)CCCNC(=O)c1cccc3cc4ccccc4nc13)n[n+]2[O-] [N],0.027,32.4 mM,–
